Data taken from US5484911A, “Nucleoside 5'-diphosphate conjugates of ether lipids” (Health Research, Inc., priority 1993, dated 1996).
Like-named read-outs stand apart in the source and are kept apart here.

What was measured:
[1] = tested on: HIV-1; experiment: microbe, parasite or virus in culture; assay type: cell-based; conditions: for Conclusion: NCI screen conclusion, Tables 1-4; for conclusion / reported as anti-HIV drug: NCI screening results
Description: (§1) FIG. 3. Anti-HIV activity of AZTDP-DL-PTBA from the National Cancer Institute Developmental Therapeutics Program In-Vitro Testing Results; NSC 648540-S/1; Plate 5440; Lab 9N; SSPL:129N; Primary Screen Assay; Test Date, Jan. 21, 1992; Solubility Ind.: 1; Report Date, Apr. 27, 1992; Cell Line, CEM-IW; Solvent: Saline<0.9% (MEDIA).
as §1, with “4.” for “3.”, “AZddUDP-DL-PTBA” for “AZTDP-DL-PTBA”, “NSC: 648541-T/1;” for “NSC 648540-S/1;”, “5466;” for “5440;”, “SSPL: 129N;” for “SSPL:129N;”, “Line:” for “Line,”
(§2) FIG. 5. Anti-HIV activity of ddCDP-DL-PTBA from the National Cancer Institute Developmental Therapeutic Program In-Vitro Testing Results; NSC: D- 652872-A/1; Plate 24; Lab 9N; Primary Screen Assay; Test Date, Jul. 23, 1992; Solubility Ind.: 1; Report Date: Aug. 7, 1992; Cell Line: CEM-IW; Solvent: Saline<0.9% (MEDIA).
(§3) FIG. 6. Anti-HIV activity of AZTDP-DL-PMA from the National Cancer Institute Developmental Therapeutics Program In-Vitro Testing Results; NSC: D- 652873-C/1; Plate 24; Lab 9N; SSPL: 129N; Primary Screen Assay; Test Date, Jul. 23, 1992; Solubility Ind.: 1; Report Date, Sep. 11, 1992; Cell Line: CEM-IW; Solvent: Saline<0.9% (MEDIA).
Anti-HIV evaluation for the compounds was performed at the National Cancer Institute, National Institute of Health and is presented in FIGS. 3-6.
(§4) The procedure is designed to detect agents acting at any stage of the virus reproductive cycle (Weislow, et al., J. Natl. Cancer Inst. 81, 577, 1989). The assay basically involves the killing of T4 lymphocytes by HIV. Small amounts of HIV are added to cells, and a complete cycle of virus reproduction is necessary to obtain the required cell killing. Agents that interact with virions, cells, or virus gene-products to interfere with viral activities will protect cells from cytolysis. Compounds that degenerate or are rapidly metabolized in the culture conditions may not show activity in this screen. All tests are compared with at least one positive (e.g., AZT-treated) control done at the same time under identical conditions.
(§5) Compound was dissolved in DMSO then diluted 1:100 in cell culture medium before preparing serial half-log10 dilutions. T4 lymphocytes (CEM cell line) were added and after a brief interval HIV-1 was added, resulting in a 1:200 final dilution of the compound. Uninfected cells with the compound served as a toxicity control, and infected and uninfected without the compound served as basic controls. Cultures were incubated at 37° C. in a 5% CO2 atmosphere for 6 days. The tetrazolium salt, XTT, was added to the wells, and cultures were incubated to allow formazan color development by viable cells. Individual wells were analyzed spectrophotometrically to quantitate formazan production, and in addition were viewed microscopically for detection of viable cells and confirmation of protective activity. Drug-treated virus-infected cells were compared with drug-treated noninfected cells and with other appropriate controls (untreated infected and untreated noninfected cells, drug-containing wells without cells, etc.) on the same plate. Data were reviewed in comparison with other tests done at the same time and a determination about activity was made.

[2] = Cytotoxicity to uninfected CEM cells (toxicity control of the anti-HIV assay); assay type: cell-based; conditions: human; for CC50: CEM cells, read-out: cytotoxicity (IC50); for CC50 at 144 h: uninfected CEM-IW cells, 6 days, XTT, Tables 1-4, read-out: 1C50(Molar) (cytotoxicity)
Description: as §1
as §1, with “4.” for “3.”, “AZddUDP-DL-PTBA” for “AZTDP-DL-PTBA”, “NSC: 648541-T/1;” for “NSC 648540-S/1;”, “5466;” for “5440;”, “SSPL: 129N;” for “SSPL:129N;”, “Line:” for “Line,”
as §2, §3, §4, §5

[3] = tested on: HIV-1; conditions: cited from earlier work
[4] = in vivo; set-up: species or system Female NIH-Swiss mice; conditions: mouse, ip, 100 mg/kg
Description: FIG. 7. Mouse serum concentration of AZT following administration of AZT or AZTDP-DL-PTBA Female NIH-Swiss mice weighing 25-30 g were administered i.p. with AZT (100 mg/kg) or AZTDP-DL-PTBA (394 mg/kg, equivalent to 100 mg/kg AZT). Three mice were sacrificed at the designated time (up to 24 hr) and AZT in the serum was analyzed by a HPLC method.
Female NIH-Swiss mice weighing 25-30 g were administered intraperitoneally (i.p.) with 394 mg/kg of AZTDP-DL-PTBA (equivalent to 100 mg/kg AZT). Three mice were sacrificed at the designated time (up to 24 hours) and AZT in the serum was analyzed by an HPLC method. […] The intact conjugate level in the serum was unable to be checked by the HPLC method.

[5] = tested on: HIV-infected CEM cells; conditions: liposomal, range over the compounds named, read-out: IC50, antiretroviral activity; cited from earlier work
[6] = tested on: HIV-infected U937; conditions: liposomal, range over the compounds named, read-out: IC50, antiretroviral activity; cited from earlier work
[7] = Human immunodeficiency virus 1, CCRF-CEM, read-out: 50% of the protection (EC50)
[8] = Human immunodeficiency virus 1, CCRF-CEM, 144 h, read-out: EC50(Molar)

Work on `CCCCCCCCCCCCCCCC(=O)OC(COCCCCCCCCCCCCCC)COP(=O)(O)OP(=O)(O)OC[C@H]1O[C@@H](n2cc(C)c(=O)[nH]c2=O)C[C@@H]1N=[N+]=[N-]` (mixture of isomers) [AZTDP-DL-PMA, 3'-Azido-3'-deoxythymidine-5'-diphosphate-rac-1-O-tetradecyl-2-O-palmitoylglycerol] yielded an EC50 [1, 7] of 57 µM, a viability at 180 µM ([1]; Human immunodeficiency virus 1, CCRF-CEM, dose 1.80 × 10^-4 Molar (Table 4), read-out: INFECTED RESPONSE Percent of Control) of 66.8% and a viability at 570 µM ([1]; Human immunodeficiency virus 1, CCRF-CEM, dose 5.70 × 10^-4 Molar (Table 4), read-out: INFECTED RESPONSE Percent of Control) of 90.7%. For the same compound, the viability at 57 µM ([1]; Human immunodeficiency virus 1, CCRF-CEM, dose 5.70 × 10^-5 Molar (Table 4), read-out: INFECTED RESPONSE Percent of Control) was 55.8%, the Conclusion [1] was “CONFIRMED ACTIVE” and the “conclusion / reported as anti-HIV drug” value [1] was “moderate”. The viability at 180 µM ([2]; uninfected cem cells, dose 1.80 × 10^-4 Molar (Table 4), read-out: UNINFECTED RESPONSE Percent of Control) was 109%, the viability at 570 µM ([2]; uninfected cem cells, dose 5.70 × 10^-4 Molar (Table 4), read-out: UNINFECTED RESPONSE Percent of Control) was 109% and the viability at 57 µM ([2]; uninfected cem cells, dose 5.70 × 10^-5 Molar (Table 4), read-out: UNINFECTED RESPONSE Percent of Control) was 114%. It also gave a CC50 [2] of 14000 µM and a CC50 at 144 h [2] of 14000 µM.
For `CCCCCCCCCCCCCCCCCCSCC(COP(=O)(O)OP(=O)(O)OC[C@H]1O[C@@H](n2ccc(=O)[nH]c2=O)C[C@@H]1N=[N+]=[N-])OC(=O)CCCCCCCCCCCCCCC` (mixture of isomers) [AZddUDP-DL-PTBA, 3'-Azido-2',3'-dideoxyuridine-5'-diphosphate-rac-1-S-octadecyl-2-O-palmitoyl-1-thioglycerol], the EC50 [1, 8] was 59 µM, the EC50 [1, 7] was 59 µM and the viability at 180 µM ([1]; Human immunodeficiency virus 1, CCRF-CEM, dose 1.80 × 10^-4 Molar (Tables 1, 2), read-out: INFECTED RESPONSE Percent of Control) was 103%. It also gave a viability at 18 µM ([1]; Human immunodeficiency virus 1, CCRF-CEM, dose 1.80 × 10^-5 Molar (Tables 1, 2), read-out: INFECTED RESPONSE Percent of Control) of 11.1%, a viability at 1.8 µM ([1]; Human immunodeficiency virus 1, CCRF-CEM, dose 1.80 × 10^-6 Molar (Tables 1, 2), read-out: INFECTED RESPONSE Percent of Control) of 4.68% and a viability at 580 µM ([1]; Human immunodeficiency virus 1, CCRF-CEM, dose 5.80 × 10^-4 Molar (Tables 1, 2), read-out: INFECTED RESPONSE Percent of Control) of 7.96%. It also gave a viability at 58 µM ([1]; Human immunodeficiency virus 1, CCRF-CEM, dose 5.80 × 10^-5 Molar (Tables 1, 2), read-out: INFECTED RESPONSE Percent of Control) of 50.6%, a viability at 5.8 µM ([1]; Human immunodeficiency virus 1, CCRF-CEM, dose 5.80 × 10^-6 Molar (Tables 1, 2), read-out: INFECTED RESPONSE Percent of Control) of 6.2% and a viability at 0.58 µM ([1]; Human immunodeficiency virus 1, CCRF-CEM, dose 5.80 × 10^-7 Molar (Tables 1, 2), read-out: INFECTED RESPONSE Percent of Control) of 2.69%. The Conclusion [1] was “CONFIRMED ACTIVE”, the “conclusion / reported as anti-HIV drug” value [1] was “moderate” and the viability at 180 µM ([2]; uninfected cem cells, dose 1.80 × 10^-4 Molar (Tables 1, 2), read-out: UNINFECTED RESPONSE Percent of Control) was 138%. It also gave a viability at 18 µM ([2]; uninfected cem cells, dose 1.80 × 10^-5 Molar (Tables 1, 2), read-out: UNINFECTED RESPONSE Percent of Control) of 98.6%, a viability at 1.8 µM ([2]; uninfected cem cells, dose 1.80 × 10^-6 Molar (Tables 1, 2), read-out: UNINFECTED RESPONSE Percent of Control) of 96.6% and a viability at 580 µM ([2]; uninfected cem cells, dose 5.80 × 10^-4 Molar (Tables 1, 2), read-out: UNINFECTED RESPONSE Percent of Control) of 5.01%. The viability at 58 µM ([2]; uninfected cem cells, dose 5.80 × 10^-5 Molar (Tables 1, 2), read-out: UNINFECTED RESPONSE Percent of Control) was 107%, the viability at 5.8 µM ([2]; uninfected cem cells, dose 5.80 × 10^-6 Molar (Tables 1, 2), read-out: UNINFECTED RESPONSE Percent of Control) was 94.6% and the viability at 0.58 µM ([2]; uninfected cem cells, dose 5.80 × 10^-7 Molar (Tables 1, 2), read-out: UNINFECTED RESPONSE Percent of Control) was 94.6%. It also gave a CC50 [2] of 390 µM and a CC50 at 144 h [2] of 590 µM.
`CCCCCCCCCCCCCCCCCCSCC(COP(=O)(O)OP(=O)(O)OC[C@@H]1CC[C@H](n2ccc(N)nc2=O)O1)OC(=O)CCCCCCCCCCCCCCC` (mixture of isomers) [ddCDP-DL-PTBA, 2',3'-Dideoxycytidine-5'-diphosphate-rac-1-S-octadecyl-2-O-palmitoyl-1-thioglycerol] gave an EC50 [1, 8] of 130 µM, an EC50 [1, 7] of 130 µM and a viability at 200 µM ([1]; Human immunodeficiency virus 1, CCRF-CEM, dose 2.00 × 10^-4 Molar (Table 3), read-out: INFECTED RESPONSE Percent of Control) of 78%. For the same compound, the viability at 630 µM ([1]; Human immunodeficiency virus 1, CCRF-CEM, dose 6.30 × 10^-4 Molar (Table 3), read-out: INFECTED RESPONSE Percent of Control) was 98.7%, the viability at 63 µM ([1]; Human immunodeficiency virus 1, CCRF-CEM, dose 6.30 × 10^-5 Molar (Table 3), read-out: INFECTED RESPONSE Percent of Control) was 10.2% and the Conclusion [1] was “CONFIRMED ACTIVE”. The “conclusion / reported as anti-HIV drug” value [1] was “moderate”, the “TI50(IC/EC)” value ([1]; ratio IC50/EC50, Tables 2-3) was 2.10 × 10^+1 and the viability at 200 µM ([2]; uninfected cem cells, dose 2.00 × 10^-4 Molar (Table 3), read-out: UNINFECTED RESPONSE Percent of Control) was 137%. The viability at 630 µM ([2]; uninfected cem cells, dose 6.30 × 10^-4 Molar (Table 3), read-out: UNINFECTED RESPONSE Percent of Control) was 125%, the viability at 63 µM ([2]; uninfected cem cells, dose 6.30 × 10^-5 Molar (Table 3), read-out: UNINFECTED RESPONSE Percent of Control) was 130% and the CC50 [2] was 2800 µM. The CC50 at 144 h [2] was 2800 µM.
In the case of `COCCCCCCCCCCCC(=O)O` [13-Oxamyristic acid, 12-methoxydodecanoic acid], the “effectiveness among myristate analogs” value [3] is given as “the most effective” and the “reverse transcriptase activity, p24 levels, and syncytia formation” value [3] is given as “concentration-dependent decrease in reverse transcriptase activity, p24 levels, and syncytia formation”.
Work on `Cc1cn([C@H]2C[C@H](N=[N+]=[N-])[C@@H](CO)O2)c(=O)[nH]c1=O` [AZT, 3'-azido-3'-deoxythymidine, reference compound] yielded a half-life [4] of 18.6 min.
In the case of `CCCCCCCCCCCCCC(=O)OCC(COP(=O)(O)OC[C@H]1O[C@@H](n2cc(C)c(=O)[nH]c2=O)C[C@@H]1N=[N+]=[N-])OC(=O)CCCCCCCCCCCCC` (stereo partly shown) [Dimyristoyl-phosphatidylAZT], the IC50 [5] is listed as 1.7 to 22 µM and the IC50 [6] is listed as 0.2 to 12 µM.
For `CCCCCCCCCCCCCC(=O)OCC(COP(=O)(O)OC[C@@H]1CC[C@H](n2ccc(N)nc2=O)O1)OC(=O)CCCCCCCCCCCCC` (stereo partly shown) [dimyristoylphosphatidylddC], the IC50 [5] is given as 1.7 to 22 µM and the IC50 [6] is given as 0.2 to 12 µM.
For `CCCCCCCCCCCCCC(=O)OCC(COP(=O)(O)OC[C@@H]1CC[C@H](n2cc(C)c(=O)[nH]c2=O)O1)OC(=O)CCCCCCCCCCCCC` (stereo partly shown) [dimyristoylphosphatidylddT], the IC50 [5] is listed as 1.7 to 22 µM and the IC50 [6] is listed as 0.2 to 12 µM.
In the case of AZT dipalmitoylglycerol, the IC50 [5] is given as 1.7 to 22 µM and the IC50 [6] is given as 0.2 to 12 µM.
